Measured values published in article PMC4387272, “Pharmacokinetic, pharmacodynamic and biomarker evaluation of transforming growth factor-β receptor I kinase inhibitor, galunisertib, in phase 1 study in patients with advanced cancer” (Investigational new drugs, 2014).
Like-named read-outs stand apart in the source and are kept apart here.

Tests used:
[1] = Non-compartmental plasma pharmacokinetics of galunisertib in patients (LC-MS/MS); format: in vivo, Human; settings: for Cmax / AUC(0-inf): po
Procedure: Human plasma samples obtained during this study were analyzed at PharmaNet USA, Inc. Princeton, New Jersey, USA. The samples were analyzed for galunisertib levels using 2 validated liquid chromatography with tandem mass spectrometry methods. For the high-range method (PharmaNet USA, Inc. SOP TM.589), the lower limit of quantification was 5.000 ng/mL and the upper limit of quantification was 1000.000 ng/mL. The intra-assay accuracy (% relative error) during validation ranged from 1.800 to 10.222 %. The intra-assay precision (% relative standard deviation) during validation ranged from 3.119 to 18.389 %. Samples above the limit of quantification were diluted to yield results within the calibrated range. Samples below the lower limit of quantification using the high-range method were reanalyzed using the low-range method. For the low-range method (PharmaNet USA, Inc. SOP TM.563), the lower limit of quantification was 0.050 ng/mL and the upper limit of quantification was 10.000 ng/mL. The intra-assay accuracy during validation ranged from −5.080 to −2.000 %. The intra-assay precision during validation ranged from 4.404 to 12.245 %.
All patients who received at least 1 dose of galunisertib and had samples collected were subjected to PK analyses. The PK parameters for galunisertib were computed by standard non-compartmental methods of analysis using Win Nonlin Professional Edition (version 5.3) on a computer that met or exceeded the minimum system requirements for this program with appropriate and validated software. The parameters reported from the non-compartmental analyses included the maximum plasma concentration (Cmax), area under the curve from zero to 24 h (AUC(0–24)), AUC from zero time to infinity (AUC(0–∞)), half-life volume of distribution (Vd) and clearance (CL).
Clinical benefit in this study has been defined as a patient with either a complete response (CR), partial response (PR), and stable disease (SD) ≥6 cycles. MAIP results from plasma samples taken at baseline were compared between patients completing >6 cycles and ≤6 cycles using ANOVA. The analysis included controlling the false discovery rate to 30 % using the Benjamini-Hochberg method. Boxplots showing the distributions at baseline of the potentially prognostic markers are provided. Observed TGF-β-stimulated pSMAD2 (pSMAD2^+) in PBMCs was normalized by TGF-β-stimulated tSMAD2 [(tSMAD2^+) ^0.6[9, 10]] prior to determining the minimum normalized pSMAD2^+ and calculating percentage inhibition post-baseline for each patient. Baseline and minimum post-baseline values for each patient together with maximum percentage inhibition are presented on a line and scatter plot for each patient in Cohort 3 and summary statistics by time point provided from a standard mixed effects regression model, fitting log normalized pSMAD2^+ to the fixed effects of log baseline normalized pSMAD2^+, nominal time point, dose and their interaction and patient as a random effect.
• Part A (Fig. 1 and Table 2): Non-compartmental PK analysis was performed on 37 of the 39 patients treated in Part A: n=3 in Cohort 1 (40 mg/day); n=4 in Cohort 2 (80 mg/day); n=15 in Cohort 3 (160 mg/day); n=6 in Cohort 4 (240 mg/day); n=9 in Cohort 5 (300 mg/day). […] The terminal half-life was approximately 8 h. At steady state, on Day 14, the median time to maximum concentration (tmax,ss) ranged from 0.5 to 2 h post dose, independent of dose. Formal assessment of time-linear kinetics was not possible, regardless of whether or not the observed exposures of AUC(0–∞) Day 1 and AUC(0–∞) Day 14 were similar. […] Both the maximum observed plasma concentration at steady state (Cmax,ss) and exposure increased with dose as indicated from the statistical analysis of the PK parameters. […] A population PK model was developed based on data in Cohorts 1 through 5 [7]. […] PK profiles of galunisertib following administration of 160 mg/day (Cohort 6) and 300 mg/day (Cohort 7) on Days 6 and 7 were similar.

[2] = tested on: T cell subsets (CD3+, CD8+, CD4+, CD4+CD25+CD127-/LOFoxp3+); assay: Flow cytometry for T cell subsets; format: in vivo, Human
Description: Blood samples were obtained and prepared for flow cytometry assessment following the instructions of Quintiles Laboratories (Durham, NC). After red blood cell lysis, cells were stained for CD3^+, CD8^+, CD4^+ and CD4^+CD25^+ CD127^−/LOFoxp3^+ and events were collected by flow cytometer per standard Quintiles procedures. All results were reported as absolute cell counts and as percentage of lymphocytes.
An amendment was introduced to assess T cell subsets in Part B and Part C.

[3] = tested on: MDC/CCL22; assay: Multi-analyte immunoassay panel (MAIP) of plasma proteins; format: in vivo, Human; settings: Part A and Part B, data not shown
Procedure: Plasma samples were analyzed for PD assessments by using a multi-analyte immunoassay panel (MAIP) (Myriad RBM, Austin, TX). The MAIP measurements included 89 plasma proteins. These proteins were evaluated at baseline and during the first cycle of treatment.
MDC/CCL22 is associated with modulating T regulatory cells and it may be involved in the activation of antigen-presenting cells. Whether such levels confer a better prognosis remains to be assessed. The lack of a change in MDC/CCL22 may perhaps indicate that this chemokine is not affected by galunisertib, but long-term examinations will be needed to further confirm this initial impression. Other plasma proteins were also found to be at different levels for patients treated with ≥6 cycles or ≤6 cycles.

[4] = design: method as in PMID 24868575; settings: population PK model, Cohorts 1 through 5; cited from earlier work
[5] = tested on: ID1 and CD44; design: method as in PMID 21156287; settings: 1 patient, surgical re-resection during off-period of intermittent dosing; cited from earlier work
[6] = Part A, 240 mg/day oral BID, day 14 steady state, Cycle 2, individual patients
[7] = Part A, 7.5-fold dose range, power model

In the case of Cc1cccc(-c2nn3c(c2-c2ccnc4ccc(C(N)=O)cc24)CCC3)n1 [galunisertib], the “AUC0,∞ individual parameters (n <3)” value [1, 6] was 2500- ^a ng*h/mL, the “Cmax, ss individual parameters (n <3)” value [1, 6] was 610- ^a ng/mL and the “PK profile in patients on enzyme-inducing anti-epileptic medication versus other patients” value ([1]; Part A, 3 patients (2 in Cohort 3, 1 in Cohort 4)) was “do not appear to differ”. For the same compound, the “accumulation over the 14-day BID dosing regimen” value ([1]; Part A, 5 cohorts) was “no accumulation”, the “estimated ratio of geometric means for AUC(0-∞) between 40 and 300 mg daily” value [1, 7] was 5.61 and the “estimated ratio of geometric means for Cmax,ss between 40 and 300 mg daily” value [1, 7] was 3.99. The “PK profile with co-administration of proton pump inhibitors” value ([1]; Part A, 14 patients on PPI, Day 14) was “do not appear to be altered”, the “fold increase of AUC(0–∞) for a doubling of dose” value ([1]; Part A, 40–300 mg, power model) was 1.81 fold and the “fold increase of Cmax,ss for a doubling of dose” value ([1]; Part A, 40–300 mg, power model) was 1.61 fold. The “duration of measurable plasma concentrations” value ([1]; Part A, oral, patients) was “at least 48 h”, the “effect of co-administration of lomustine on galunisertib PK profile” value ([1]; Part B, 160 mg/day and 300 mg/day, Days 6 and 7) was “did not appear to alter” and the “dose proportionality of PK” value ([1]; any doubling of dose within 40–300 mg, particularly AUC(0-∞)) was “dose-proportional PK”. It also gave a Tmax ([1]; human, plasma, oral, Part A, steady state, Day 14, post dose, independent of dose, read-out: median time to maximum concentration (tmax,ss)) of 1800 to 7200 s, a Cmax ([1]; human, plasma, 40 mg/day, Part A, 40 mg/day oral BID, day 14 steady state, Cycle 1, patients, read-out: Cmax, ss mean (% CV)) of 220 ng/mL and a Cmax ([1]; human, plasma, 80 mg/day, Part A, 80 mg/day oral BID, day 14 steady state, Cycle 1, patients, read-out: Cmax, ss mean (% CV)) of 350 ng/mL. For the same compound, the AUC(0-inf) ([1]; human, plasma, 160 mg/day, Part A, 160 mg/day oral BID, day 14 steady state, Cycle 1, patients, read-out: AUC0,∞ mean (% CV)) was 2140 ng·h/mL, the Cmax ([1]; human, plasma, 160 mg/day, Part A, 160 mg/day oral BID, day 14 steady state, Cycle 1, patients, read-out: Cmax, ss mean (% CV)) was 630 ng/mL and the AUC(0-inf) ([1]; human, plasma, 160 mg/day, Part A, 160 mg/day oral BID, day 14 steady state, Cycle 2, patients, read-out: AUC0,∞ mean (% CV)) was 2430 ng·h/mL. For the same compound, the Cmax ([1]; human, plasma, 160 mg/day, Part A, 160 mg/day oral BID, day 14 steady state, Cycle 2, patients, read-out: Cmax, ss mean (% CV)) was 790 ng/mL, the AUC(0-inf) ([1]; human, plasma, 240 mg/day, Part A, 240 mg/day oral BID, day 14 steady state, Cycle 1, patients, read-out: AUC0,∞ mean (% CV)) was 3060 ng·h/mL and the Cmax ([1]; human, plasma, 240 mg/day, Part A, 240 mg/day oral BID, day 14 steady state, Cycle 1, patients, read-out: Cmax, ss mean (% CV)) was 660 ng/mL. It also gave an AUC(0-inf) ([1]; human, plasma, 240 mg/day, Part A, 240 mg/day oral BID, day 14 steady state, Cycle 2, individual patients, read-out: AUC0,∞ individual parameters (n <3)) of 2900 ng·h/mL, a Cmax ([1]; human, plasma, 240 mg/day, Part A, 240 mg/day oral BID, day 14 steady state, Cycle 2, individual patients, read-out: Cmax, ss individual parameters (n <3)) of 520 ng/mL and an AUC(0-inf) ([1]; human, plasma, 300 mg/day, Part A, 300 mg/day oral BID, day 14 steady state, Cycle 1, patients, read-out: AUC0,∞ mean (% CV)) of 3730 ng·h/mL. The Cmax ([1]; human, plasma, 300 mg/day, Part A, 300 mg/day oral BID, day 14 steady state, Cycle 1, patients, read-out: Cmax, ss mean (% CV)) was 990 ng/mL, the AUC(0-inf) ([1]; human, plasma, 300 mg/day, Part A, 300 mg/day oral BID, day 14 steady state, Cycle 2, patients, read-out: AUC0,∞ mean (% CV)) was 2930 ng·h/mL and the Cmax ([1]; human, plasma, 300 mg/day, Part A, 300 mg/day oral BID, day 14 steady state, Cycle 2, patients, read-out: Cmax, ss mean (% CV)) was 800 ng/mL. For the same compound, the half-life ([1]; human, plasma, Part A, oral, patients, read-out: terminal half-life (converted)) was roughly 8 h, the “between-patient coefficient of variation for AUC(0-∞) at steady state” value ([1]; pooled across the 5 cohorts) was 42% and the “between-patient coefficient of variation for Cmax,ss” value ([1]; pooled across the 5 cohorts) was 55%. For the same compound, the “within-patient coefficient of variation for AUC(0-∞) at steady state” value ([1]; pooled across the 5 cohorts) was 29%, the “within-patient coefficient of variation for Cmax,ss” value ([1]; pooled across the 5 cohorts) was 31% and the “lymphocyte counts and the respective subsets” value ([2]; Part B, in combination with lomustine) was “reduced”. The “counts of CD3+, CD8+, CD4+ and CD4+CD25+CD127−/LOFoxp3+ cells” value ([2]; Part C, monotherapy) was “either stabilized or increased”, the “post-treatment plasma levels of MDC/CCL22” value [3] was “did not show a change” and the “mean population CL” value [4] was 38 L/h. The “steady state volume of distribution (Vss)” value [4] was 210 L and the “expression of ID1 and CD44 in tumor tissue after treatment” value [5] was “reduced”.
